According to US20130288981A1, “TARGETING SENESCENT CELLS AND CANCER CELLS BY INTERFERENCE WITH JNK AND/OR FOXO4” (Buck Institute for Research on Aging, priority 2012, published 2013):

What was measured:
FOXO4 = FOXO4 knockdown by short hairpins: FOXO4 mRNA (QPCR) and punctate FOXO4 staining; assay type: cell-based, human; settings: HCA2 fibroblasts, 8 days after 10Gy XRAY
Description: FIG. 2. Knockdown of FOXO4 results in apoptosis rather than senescence in DNA-damaged IMR90 fibroblasts. A) Reduction in punctate FOXO4 staining and FOXO4 mRNA expression after 8 days 10Gy XRAY in HCA2 fibroblasts infected […] hairpins targeted at FOXO4. […] B) Increased cytoplasmic Cytochrome C staining (a marker of apoptosis; arrowheads) in DNA-damaged IMR90 cells infected with knockdown against FOXO4. The percentage apoptotic cells is quantified. C) Increased TUNEL staining (a second marker of apoptosis) in similar conditions a B.
FIG. 2A: HCA2 fibroblasts were infected with lentiviral particles containing a control shRNA-encoding vector targeted against a mature sequence in GFP (based on vector PLK0.1, Open Biosystems): 5′-[…]-3′ or two independent sequences in (human) FOXO4, shFOXO4-1: 5′-[…]-3′ and shFOXO4-2: 5′-[…]-3′. Following selection for two days in 0.5 μg/ml Puromycin cells were plated and processed as in FIG. 1 to determine FOXO4 mRNA expression and FOXO4 localization by immunofluorescence. FIG. 2B: IMR90 fibroblasts were infected and treated as in A). Following selection 2×10^5 cells were plated on coverslips and irradiated the next day. […] The percentage of cells with released Cytochrome C staining (translocated from punctual mitochondrial staining to diffuse or absent staining) was determined for 100 cells per condition. […]

JNK1/2 = settings: in vitro and in cultured cells; literature; cited from earlier work
A375 melanoma cells = assay: Surviving fraction (MTS) of A375-shGFP versus A375-shFOXO4 cells treated with chemotherapeutic agents; assay type: cell-based, human
Protocol: FIG. 12. FOXO4 inhibition on sensitizes A375 melanoma cells to inhibitors of the BRAF/MEK pathway. A) A375 cells stably infected with a control shRNA (shGFP) or an shRNA against FOXO4 (shFOXO4) were treated with the indicated concentrations of the BRAF^V600E-inhibitor PLX4032 and the percentage of the surviving fraction on was determined by Aqueous CellQuant assay either after day 6 (left panel) or day 11 (right panel). Note that for the right panel the cells were refreshed at day 7 with the exact same concentration on of PLX4032. B) Similar experiment as in A), except with the general RAF inhibitor RAF265. C) Similar experiment as in A), except with the MEK inhibitor AZD6244.
FIG. 12A: 2×10^4 A375-shGFP or A375-shFOXO4-2 cells were plated in triplicate in 96-well plate chambers. The next day the cells were incubated with the indicated concentrations of PLX4032 or left untreated. After 6 days the a CellTiter 96® AQueous One Solution Cell Proliferation Assay (MTS) was performed according to the manufacturer's instructions (Promega) to determine the relative number of cells versus Mock treated A375-shGFP or A375-shFOXO4-2 melanoma cells (Left panel). Additionally, in a separate experiment the cells were refreshed at day 7 with the same dose of PLX4032 and left for another 4 days after which the same procedure was performed. […]

[1] = system: MCF7 mammary carcinoma cells; assay: Cytochrome C release in MCF7 cells with FOXO4 knockdown treated with 5'-fluoro-uracil; assay type: cell-based, human; settings: 5 μM, 40 h
Protocol: FIG. 11. Sensitization of melanoma cells other types of cancer to additional types of chemotherapy. A) A375 melanoma cells were incubated with the FOXO4-p53 blocking peptide mix in the presence or absence of 2 μM Cisplatin and after 4 days cellular morphology was visualized. […] B) MCF7 mammary carcinoma cells were infected with the short hairpins against FOXO4 and after puromycin selection treated with 5 μM 5′-fluoro-uracil. 40 h later the percentage Cytochrome C-release was scored. The immunofluorescence panels show staining of Cytochrome C. The top, middle and bottom left panels all show mitochondrial Cytochrome C staining. […] C) B16F10Luc mouse melanoma cells were infected with a mouse-specific short hairpin against FOXO4 and short hairpin #2 against human FOXO4 from FIG. 2 which shares sequence homology with mouse FOXO4. After puromycin selection cells were incubated with 10 μM Cisplatin and after 7 days cellular viability was determined by CellTiter 96® AQueous One Solution Cell Proliferation Assay (MTS).
FIG. 11A: 2×10^5 A375 melanoma cells were plated in 24-well plate chambers. The next day the cells were incubated with 50 μM DBD2-peptide or a mixture of 25 μM DBD2-peptide and 25 μM C-term peptide in the presence or absence of 2 μM Cisplatin. […]

Compound | knockdown of FOXO4 mRNA and punctate FOXO4 staining (FOXO4) | sensitivity of A375-shFOXO4 versus A375-shGFP melanoma cells (A375 melanoma cells) | other results
5′-CGTCCACGAAGCAGTTCAAAT-3′ [shFOXO4-2] | induce knockdown of FOXO4 mRNA and reduction in punctate FOXO4 | – | –
dDdQdSdRdPdVdQdPdFdLdQdLdTdTdPdRdKdPdRdPdPdRdRdRdQdRdRdKdKdRG [D-JNK1] | – | – | inhibition of JNK1/2 kinase activity (JNK1/2): selectively blocks access to its substrates
5′-CCAGCTTCAGTCAGCAGTTAT-3′ [shFOXO4-1] | induce knockdown of FOXO4 mRNA and reduction in punctate FOXO4 | – | –
N.N.[Cl][Pt][Cl] [Cisplatin] | – | more sensitive | –
O=c1[nH]cc(F)c(=O)[nH]1 [5-fluorouracyl] | – | – | sensitization of MCF7 cells by FOXO4 knockdown (Cytochrome C release) [1]: sensitized
Cn1c(Nc2ccc(C(F)(F)F)cc2)nc2cc(Oc3ccnc(-c4ncc(C(F)(F)F)[nH]4)c3)ccc21 [RAF265] | – | more sensitive | –
